Patent US8415469B2, “Compounds and methods for kinase modulation, and indications therefor” (Plexxikon Inc., priority 2005, dated 2013)

Tests used:
Assay type in all cases: biochemical
FGFR1 = molecular target: T1, FGFR1 (Homo sapiens, UniProt P11362, C488A/C584S); assay: AlphaScreen kinase assay, FGFR1; details: read-out: IC50, activity toward kinase FGFR
T1 construct: P1351.pET N6 BI-PTP FGFR A458-E765-X C488A, C584S; made in house; host or cells: E. coli (PTP1B co-expressed)

Ret = molecular target: T2, Ret (Homo sapiens, UniProt P07949); assay: AlphaScreen kinase assay, Ret; details: read-out: IC50, activity toward kinase Ret
T2 construct: P1378.pET-SF BI-PTP RET H661-R1012 HIS; made in house
T2 sequence (P07949 with tags, fused parts or gaps): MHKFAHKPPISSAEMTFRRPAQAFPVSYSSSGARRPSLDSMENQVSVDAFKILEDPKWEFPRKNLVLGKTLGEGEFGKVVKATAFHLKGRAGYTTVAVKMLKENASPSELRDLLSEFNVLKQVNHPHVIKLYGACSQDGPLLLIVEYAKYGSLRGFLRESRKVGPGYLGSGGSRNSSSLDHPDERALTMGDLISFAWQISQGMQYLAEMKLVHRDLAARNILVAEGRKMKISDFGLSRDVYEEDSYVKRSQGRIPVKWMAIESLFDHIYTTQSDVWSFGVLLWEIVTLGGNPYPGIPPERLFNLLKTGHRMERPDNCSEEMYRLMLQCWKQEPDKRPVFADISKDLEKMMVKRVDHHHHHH

Fms = molecular target: T3, Fms (Homo sapiens, UniProt P07333); assay: AlphaScreen kinase assay, Fms; details: read-out: IC50, activity toward kinase Fms
T3 construct: purchased Upstate Biotechnology
T3 sequence (P07333 20-972): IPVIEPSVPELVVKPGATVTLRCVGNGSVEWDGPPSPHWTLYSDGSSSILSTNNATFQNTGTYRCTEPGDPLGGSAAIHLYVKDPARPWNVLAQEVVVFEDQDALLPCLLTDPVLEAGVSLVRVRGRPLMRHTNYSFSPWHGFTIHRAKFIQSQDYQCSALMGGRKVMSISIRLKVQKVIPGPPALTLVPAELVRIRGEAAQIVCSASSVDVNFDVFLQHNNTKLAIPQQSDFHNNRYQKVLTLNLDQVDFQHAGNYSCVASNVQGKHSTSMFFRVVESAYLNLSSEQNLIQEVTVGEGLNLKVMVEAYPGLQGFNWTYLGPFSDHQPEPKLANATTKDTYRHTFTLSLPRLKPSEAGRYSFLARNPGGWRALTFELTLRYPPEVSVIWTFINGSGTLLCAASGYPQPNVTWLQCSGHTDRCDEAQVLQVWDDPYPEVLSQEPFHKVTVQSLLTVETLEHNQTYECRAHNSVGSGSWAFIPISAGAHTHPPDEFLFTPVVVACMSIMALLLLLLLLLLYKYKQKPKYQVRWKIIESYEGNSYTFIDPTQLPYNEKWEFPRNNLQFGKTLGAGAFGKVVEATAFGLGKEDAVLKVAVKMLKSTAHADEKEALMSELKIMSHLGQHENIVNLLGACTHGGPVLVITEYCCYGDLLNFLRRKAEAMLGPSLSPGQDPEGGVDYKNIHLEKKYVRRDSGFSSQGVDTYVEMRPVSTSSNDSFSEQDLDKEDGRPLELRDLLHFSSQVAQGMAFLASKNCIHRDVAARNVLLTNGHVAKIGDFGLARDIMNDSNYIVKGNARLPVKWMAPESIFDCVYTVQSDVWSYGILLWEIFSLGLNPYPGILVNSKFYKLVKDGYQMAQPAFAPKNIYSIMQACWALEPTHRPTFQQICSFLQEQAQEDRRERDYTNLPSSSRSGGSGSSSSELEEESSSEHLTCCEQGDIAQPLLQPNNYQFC

Yes = molecular target: T4, Yes (Homo sapiens, UniProt P07947); assay: Z'-Lyte FRET kinase assay (Invitrogen), Yes; details: read-out: IC50, activity toward kinase Yes
T4 construct: purchased Invitrogen (Carlsbad, Calif.), screening service
T4 sequence (P07947 whole entry): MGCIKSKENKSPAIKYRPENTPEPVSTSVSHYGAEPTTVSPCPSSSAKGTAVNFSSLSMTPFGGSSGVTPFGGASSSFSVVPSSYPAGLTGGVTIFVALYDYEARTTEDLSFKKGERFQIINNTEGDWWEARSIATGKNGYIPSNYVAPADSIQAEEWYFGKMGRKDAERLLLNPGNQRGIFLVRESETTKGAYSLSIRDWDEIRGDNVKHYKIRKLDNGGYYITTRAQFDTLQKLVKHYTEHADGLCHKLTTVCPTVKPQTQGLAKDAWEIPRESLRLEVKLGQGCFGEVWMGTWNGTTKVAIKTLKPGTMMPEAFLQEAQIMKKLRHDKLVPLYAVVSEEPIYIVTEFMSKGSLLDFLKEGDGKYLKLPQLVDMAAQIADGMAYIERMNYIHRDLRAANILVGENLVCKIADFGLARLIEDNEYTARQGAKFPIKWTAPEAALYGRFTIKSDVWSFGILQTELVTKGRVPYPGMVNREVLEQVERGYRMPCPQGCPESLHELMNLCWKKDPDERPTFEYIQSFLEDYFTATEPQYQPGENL
In short: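 Serially diluted compound (final 1% DMSO) incubated 1 h at room temperature with kinase, 2 μM FRET peptide and 10 μM ATP in pH 7.5 HEPES buffer. Site-specific protease then cleaves unphosphorylated peptide (1 h); inhibition read as increased coumarin-to-fluorescein emission ratio.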

Jnk3 = molecular target: T5, Jnk3 (Homo sapiens, UniProt P53779); assay: AlphaScreen kinase assay, Jnk3; details: read-out: IC50, activity toward kinase Jnk3
T5 construct: purchased Upstate Biotechnology
T5 sequence (P53779 whole entry): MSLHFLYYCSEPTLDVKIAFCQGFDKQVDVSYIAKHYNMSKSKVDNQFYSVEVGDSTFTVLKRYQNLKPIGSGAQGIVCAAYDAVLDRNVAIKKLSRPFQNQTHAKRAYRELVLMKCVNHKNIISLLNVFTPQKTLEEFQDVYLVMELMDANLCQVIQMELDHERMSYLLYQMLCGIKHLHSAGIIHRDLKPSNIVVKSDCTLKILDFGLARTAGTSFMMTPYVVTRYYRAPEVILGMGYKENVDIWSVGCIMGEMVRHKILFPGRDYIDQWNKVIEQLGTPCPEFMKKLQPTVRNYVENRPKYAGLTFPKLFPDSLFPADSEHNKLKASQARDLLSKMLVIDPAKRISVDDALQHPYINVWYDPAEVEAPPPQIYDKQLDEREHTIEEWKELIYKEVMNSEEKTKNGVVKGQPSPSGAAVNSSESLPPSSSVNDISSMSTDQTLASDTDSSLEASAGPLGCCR

Fak = molecular target: T6, Fak (Homo sapiens, UniProt Q05397); assay: AlphaScreen kinase assay, Fak; details: read-out: IC50, activity toward kinase Fak
T6 construct: P1358.pFastBacHtb FAK S411-Q686-X; His6 with pFastBacHTb leader (TEV site) (N); made in house; host or cells: Sf9 (baculovirus)
T6 sequence (Q05397 411-686): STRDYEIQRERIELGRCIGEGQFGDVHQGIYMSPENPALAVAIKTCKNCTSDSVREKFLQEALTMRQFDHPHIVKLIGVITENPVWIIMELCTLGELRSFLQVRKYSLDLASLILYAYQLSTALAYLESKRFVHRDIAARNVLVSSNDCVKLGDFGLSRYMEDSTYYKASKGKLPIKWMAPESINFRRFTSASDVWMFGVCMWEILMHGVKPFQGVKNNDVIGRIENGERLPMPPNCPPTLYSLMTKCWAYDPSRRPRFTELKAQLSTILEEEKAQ

Stk6 = molecular target: T7, Stk6 (Homo sapiens, UniProt O14965); assay: Z'-Lyte FRET kinase assay (Invitrogen), Stk6; details: read-out: IC50, activity toward kinase Stk6
T7 construct: purchased Invitrogen (Carlsbad, Calif.), screening service
T7 sequence (O14965 1-403): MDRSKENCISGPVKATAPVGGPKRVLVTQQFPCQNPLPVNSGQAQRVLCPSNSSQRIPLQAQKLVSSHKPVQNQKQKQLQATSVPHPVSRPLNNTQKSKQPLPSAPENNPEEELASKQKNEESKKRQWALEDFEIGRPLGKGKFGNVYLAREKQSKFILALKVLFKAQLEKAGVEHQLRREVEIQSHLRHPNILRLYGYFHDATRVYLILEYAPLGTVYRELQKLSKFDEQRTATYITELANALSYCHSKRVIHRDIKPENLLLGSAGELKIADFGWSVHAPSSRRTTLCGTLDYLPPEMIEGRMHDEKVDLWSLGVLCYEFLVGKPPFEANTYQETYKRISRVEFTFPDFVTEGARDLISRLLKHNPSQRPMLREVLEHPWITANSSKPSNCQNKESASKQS

T1 sequence (P11362 458-765 C488A/C584S): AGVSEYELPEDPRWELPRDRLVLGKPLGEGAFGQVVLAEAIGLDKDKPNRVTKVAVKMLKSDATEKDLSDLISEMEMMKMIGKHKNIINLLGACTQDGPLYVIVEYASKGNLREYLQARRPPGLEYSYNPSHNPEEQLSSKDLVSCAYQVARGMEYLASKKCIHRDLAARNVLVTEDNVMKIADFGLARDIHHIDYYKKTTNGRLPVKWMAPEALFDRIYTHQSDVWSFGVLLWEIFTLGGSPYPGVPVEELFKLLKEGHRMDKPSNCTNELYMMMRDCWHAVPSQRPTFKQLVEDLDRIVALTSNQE

IC50 (FGFR1) [µM]	IC50 (Ret) [µM]	IC50 (Fms) [µM]	IC50 (Yes) [µM]	IC50 (Jnk3) [µM]	IC50 (Fak) [µM]	IC50 (Stk6) [µM]	SMILES
≤ 10		≤ 10			≤ 10	≤ 10	COc1cccc(C(=O)c2c[nH]c3ncc(-c4cccc(NC(C)=O)c4)cc23)c1F [Compound P-1336, N-{3-[3-(2-Fluoro-3-methoxy-benzoyl)-1H-pyrrolo[2,3-b]pyridin-5-yl]-phenyl}-acetamide]
≤ 10	≤ 10	≤ 10	≤ 10				O=C(c1cc(O)ccc1F)c1c[nH]c2ncccc12 [Compound P-0005]
≤ 10	≤ 10	≤ 10	≤ 10	≤ 10			O=C(c1ccccc1F)c1c[nH]c2ncc(-c3ccsc3)cc12 [Compound P-0134]
≤ 10	≤ 10	≤ 10		≤ 10			CS(=O)(=O)Nc1cccc(-c2cnc3[nH]cc(C(=O)c4cccc(O)c4F)c3c2)c1 [Compound P-0038, N-{3-[3-(2-Fluoro-3-hydroxy-benzoyl)-1H-pyrrolo[2,3-b]pyridin-5-yl]-phenyl}-methanesulfonamide]
≤ 10	≤ 10		≤ 10				Cc1ccc(F)cc1C(=O)c1c[nH]c2ncc(-c3ccc(C(N)=O)cc3)cc12 [Compound P-0050]
≤ 10	≤ 10		≤ 10				Cc1ccc(F)cc1C(=O)c1c[nH]c2ncc(-c3cccc(NS(C)(=O)=O)c3)cc12 [Compound P-0028]
≤ 10	≤ 10			≤ 10			O=C(c1cccc(O)c1F)c1c[nH]c2ncc(-c3cccs3)cc12 [Compound P-0521, (2-fluoro-3-hydroxy-phenyl)-(5-thiophen-2-yl-1H-pyrrolo[2,3-b]pyridin-3-yl)-methanone]
≤ 10	≤ 10	≤ 10		≤ 10	≤ 10		NC(=O)c1cccc(-c2cnc3[nH]cc(C(=O)c4cccc(O)c4F)c3c2)c1 [Compound P-0034, 3-[3-(2-Fluoro-3-hydroxy-benzoyl)-1H-pyrrolo[2,3-b]pyridin-5-yl]benzamide]
	≤ 10	≤ 10	≤ 10				O=C(c1cccc(O)c1)c1c[nH]c2ncc(-c3cccnc3)cc12 [Compound P-0048]
≤ 10	≤ 10	≤ 10		≤ 10	≤ 10	≤ 10	O=C(c1cc(O)ccc1F)c1c[nH]c2ncc(-c3cccs3)cc12 [Compound P-0032]
≤ 10		≤ 10	≤ 10				O=C(c1cc(O)ccc1F)c1c[nH]c2ncc(Br)cc12 [Compound P-0068, (5-Bromo-1H-pyrrolo[2,3-b]pyridin-3-yl)-(2-fluoro-5-hydroxy-phenyl)-methanone]
≤ 10	≤ 10	≤ 10		≤ 10	≤ 10		Cc1c(O)cccc1C(=O)c1c[nH]c2ncc(-c3cccs3)cc12 [Compound P-0114, (3-Hydroxy-2-methyl-phenyl)-(5-thiophen-2-yl-1H-pyrrolo[2,3b]pyridin-3-yl)-methanone]
≤ 10	≤ 10	≤ 10		≤ 10	≤ 10	≤ 10	CC(=O)Nc1cccc(-c2cnc3[nH]cc(C(=O)c4cccc(O)c4F)c3c2)c1 [Compound P-0035, N-{3-[3-(2-Fluoro-3-hydroxy-benzoyl)-1H-pyrrolo[2,3-b]pyridin-5-yl]-phenyl}-acetamide]
≤ 10	≤ 10	≤ 10		≤ 10	≤ 10		O=C(c1cccc(O)c1)c1c[nH]c2ncc(-c3cccs3)cc12 [Compound P-0196]

Further lines, the molecule ahead of its results:

SMILES	IC50 (FGFR1) [µM]	IC50 (Ret) [µM]	IC50 (Fms) [µM]	IC50 (Yes) [µM]	IC50 (Jnk3) [µM]	IC50 (Fak) [µM]	IC50 (Stk6) [µM]
Cc1ccc(S(=O)(=O)NCc2c[nH]c3nccc(-c4cccc(C#N)c4)c23)cc1 [Compound P-0072]	≤ 10	≤ 10	≤ 10	≤ 10			
CCCCNC(=O)Nc1ccc(F)c(C(=O)c2c[nH]c3ncc(-c4cccnc4)cc23)c1F [Compound P-1318, 1-Butyl-3-[2,4-difluoro-3-(5-pyridin-3-yl-1H-pyrrolo[2,3-b]pyridine-3-carbonyl)-phenyl]-urea]	≤ 10		≤ 10		≤ 10	≤ 10	
O=C(Nc1ccc(Cc2c[nH]c3ncccc23)cc1)Nc1cccc(C(F)(F)F)c1 [Compound P-0262, 1-[4-(1H-Pyrrolo[2,3-b]pyridin-3-ylmethyl)-phenyl]-3-(3-trifluoromethyl-phenyl)-urea]	≤ 10	≤ 10	≤ 10				
Cc1ccc(F)cc1C(=O)c1c[nH]c2nccc(-c3cccc(NS(C)(=O)=O)c3)c12 [Compound P-0124]		≤ 10		≤ 10			
Oc1ccc(F)c(Cc2c[nH]c3ncc(Br)cc23)c1F [Compound P-0122, 3-(5-Bromo-1H-pyrrolo[2,3-b]pyridin-3-ylmethyl)-2,4-difluoro-phenol]		≤ 10		≤ 10	≤ 10		
Cn1cc(C(F)(F)F)c(-c2ccc(S(=O)(=O)NCc3c[nH]c4ncccc34)s2)n1 [Compound P-0041]	≤ 10	≤ 10			≤ 10		≤ 10
Oc1ccc(F)c(C(O)c2c[nH]c3ncc(-c4cccnc4)cc23)c1F (stereo not shown) [Compound P-0009, 2,4-difluoro-3-[hydroxy-(5-pyridin-3-yl-1H-pyrrolo[2,3-b]pyridin-3-yl)-methyl]-phenol]	≤ 10	≤ 10	≤ 10		≤ 10	≤ 10	≤ 10
Cc1ccc(S(=O)(=O)NCc2c[nH]c3ncccc23)cc1 [Compound P-0058]	≤ 10	≤ 10			≤ 10		≤ 10
Fc1cc(F)cc(-c2ccnc3[nH]cc(Sc4ccccn4)c23)c1 [Compound P-0106]							≤ 10
CCCS(=O)(=O)Nc1ccc(F)c(C(=O)c2c[nH]c3ncc(OC)cc23)c1F [Compound P-0806, Propane-1-sulfonic acid [2,4-difluoro-3-(5-methoxy-1H-pyrrolo[2,3-b]pyridine-3-carbonyl)-phenyl]-amide]	≤ 10		≤ 10			≤ 10	≤ 10
COc1cc(OC)cc(C(=O)c2c[nH]c3ncc(-c4cccc(NS(C)(=O)=O)c4)cc23)c1 [Compound P-1426, N-{3-[3-(3,5-Dimethoxy-benzoyl)-1H-pyrrolo[2,3-b]pyridin-5-yl]-phenyl}-methanesulfonamide]	≤ 10		≤ 10				≤ 10
Oc1ccc(F)c(Cc2c[nH]c3ncc(-c4cccnc4)cc23)c1F [Compound P-0078, 2,4-difluoro-3-(5-pyridin-3-yl-1H-pyrrolo[2,3-b]pyridin-3-ylmethyl)-phenol]	≤ 10	≤ 10	≤ 10		≤ 10	≤ 10	
CS(=O)(=O)c1cccc(-c2ccnc3[nH]cc(C(=O)c4cc(F)ccc4F)c23)c1 [Compound P-0171]	≤ 10	≤ 10		≤ 10			
CCCC(=O)Nc1ccc(F)c(Cc2c[nH]c3ncc(-c4cccnc4)cc23)c1F [Compound P-1280]	≤ 10		≤ 10		≤ 10	≤ 10	≤ 10
OCCOc1ccc(F)c(Cc2c[nH]c3ncc(-c4cccnc4)cc23)c1F [Compound P-1394, 2-[2,4-Difluoro-3-(5-pyridin-3-yl-1H-pyrrolo[2,3-b]pyridin-3-ylmethyl)-phenoxy]-ethanol]	≤ 10		≤ 10		≤ 10	≤ 10	≤ 10
